For data set [8], the system named is PVA-MV@CB[8]. The data set can be described thus: ITC second guest binding to PVA-MV in the presence of CB[8]. To be noted: 25° C., 10 mM PBS buffer pH 7.0.
Procedure: ITC titration experiments were carried out on a VP-ITC from Microcal Inc. at 25° C. in 10 mM sodium phosphate buffer (pH=7). In a typical experiment, the host was in the sample cell at a concentration of 0.1 mM, and the guest was in the syringe at a 10 fold higher concentration. In the case of functional polymers, the concentration used is determined from the concentration of functional monomer units in solution and not the concentration of polymer. A titration consisted of 29 consecutive injections of 2-10 mL with at least 300 s intervals between injections. The first data point was removed from the data set prior to curve fitting. Heats of dilution were checked by titration well beyond saturation or by titration of the guest into a buffer solution and subtracted from the normalized enthalpies, but relatively small in all cases. The data were analyzed with Origin 7.0 software, using the one set of sites model.
Isothermal titration calorimetry (ITC) was used for quantitative investigation of the respective binding thermodynamics for the HEC-Np and PVA-MV with CB[8]
The test system of data set [1] is L929 mouse broblast cells. Particulars: 1 ppm; cited from earlier work.

Drawing on US11491227B2, “Cucurbituril-based hydrogels” (CAMBRIDGE ENTERPRISE LIMITED, priority 2012, dated 2022), this text covers Ka and cytotoxic response for two compounds.

In the case of `Oc1ccc2ccccc2c1` [NpOH, 2-naphthol], the Ka result in the data set with PVA-MV@CB[8] was “(1.10 ± 0.03) × 10^5 M^−1”.

In the case of dibutyltin dilaurate [TDL], in data set [1], the cytotoxic response result is on record as “does not elicit a cytotoxic response”.
